Measured values taken from US4672117A, “Antipsychotic gamma-carbolines” (American Home Products Corporation, priority 1985, dated 1987).

Key:
[1] = biological target: T1, limbic D-2 dopamine receptor (Rattus norvegicus, UniProt P61169); assay: limbic D-2 binding, 3H-spiroperidol, homogenized limbic brain tissue; conditions: 95% confidence interval in brackets, read-out: Limbic D-2 inhibition constant (Ki)
T1 construct: from tissue
Protocol: Binding in the presence of the test compound is expressed as a percent of specific binding (total binding less binding in the presence of 1 μM (+)butaclamol). An inhibition constant (Ki) is calculated for each test compound to categorize its limbic D-2 binding potential. The larger the number, the less potential for dopamine receptor binding and attendant side effects from administration of the antipsychotic agent.
(§1) The following examples illustrate the production of compounds of this invention. After each example the pharmacological evaluation for the compound produced is presented. The conditioned avoidance tests are reported as relative activity for the shelf-jump (S-J) at the intraperitoneal (i.p.) dose administered in mg/kg and the AB50 is presented for the lever-response (L-R) test at the oral (p.o.) dose in mg/kg. The inhibition constant is reported for limbic D-2 binding expressed in nM concentration.

[2] = test system: male CD rats; assay: conditioned avoidance, shelf-jump response (S-J); format: in vivo; conditions: rat
Source text: (§2) The antipsychotic properties of the compounds of this invention were established by standard pharmacologically accepted procedures involving two conditioned avoidance studies in which trained male CD rats (Charles River), 400-450 gm body weight are exposed to a fifteen second warning tone (conditioned stimulus) continued for an additional fifteen seconds accompanied by electric shock. The rat can avoid the electric shock by depression of a response lever (lever-response) or in a different study by jumping to an exposed shelf (shelf-jump response). In either test situation, a response during the initial warning tone is considered an avoidance response while a response during shock delivery is considered an escape response. The avoidance response is determined and expressed as a percentage of total trials from an appropriate number of trials and a 50% block in avoidance responding (AB50) is obtained from a dose-effect regression line. All the data is based upon (mg/kg) dosing of the animals. The shelf-jump response test procedure follows that of Herman et al., Comm. in Psychopharm., 3, pp. 165-171 (1979).
as §1

[3] = test system: male CD rats; assay: conditioned avoidance, lever-response (L-R); format: in vivo; conditions: rat; for L-R relative activity: lever-response conditioned avoidance; for ED50: po, lever-response, p.o., interval in brackets, read-out: L-R AB50 (50% block in avoidance responding)
Source text: as §2, §1

[4] = antagonism of apomorphine-induced stereotyped behavior; conditions: mouse, in vivo, ip, CF-1 mice, 10 mg/kg apomorphine s.c. 30 min later; measure of extrapyramidal side effects; read-out: ED50 for inhibition of apomorphine-induced stereotyped behavior

T1 sequence (P61169 whole entry): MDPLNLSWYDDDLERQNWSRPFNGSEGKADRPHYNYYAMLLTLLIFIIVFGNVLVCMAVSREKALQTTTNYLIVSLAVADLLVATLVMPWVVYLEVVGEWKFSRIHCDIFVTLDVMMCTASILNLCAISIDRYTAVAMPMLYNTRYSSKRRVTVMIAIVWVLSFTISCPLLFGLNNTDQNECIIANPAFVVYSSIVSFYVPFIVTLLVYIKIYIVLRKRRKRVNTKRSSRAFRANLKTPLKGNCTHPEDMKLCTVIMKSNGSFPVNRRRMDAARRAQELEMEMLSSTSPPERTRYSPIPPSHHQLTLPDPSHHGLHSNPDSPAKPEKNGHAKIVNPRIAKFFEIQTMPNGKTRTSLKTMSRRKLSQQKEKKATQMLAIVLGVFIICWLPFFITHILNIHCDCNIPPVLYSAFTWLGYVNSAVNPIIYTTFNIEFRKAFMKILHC

Row | Structure (SMILES) | Ki [1] [nM] | S-J relative activity ([2]; 40 mg/kg i.p.) | also measured
1 | Fc1ccc(-n2c3c(c4cc(F)ccc42)CN(CCc2ccncc2)CC3)cc1 [Example 7, 8-Fluoro-5-(4-fluorophenyl)-2,3,4,5-tetrahydro-2-[2-(4-pyridinyl)ethyl]-1H-pyrido[4,3-b]indole] | 12 | Active | 
2 | c1ccc(C2CN(CCCCc3ccncc3)Cc3c2[nH]c2ccccc32)cc1 (stereo not drawn) [Example 2, 2,3,4,5-Tetrahydro-4-phenyl-2-[4-(4-pyridinyl)butyl]-1H-pyrido[4,3-b]indole] | 404 |  | S-J relative activity ([2]; 20 mg/kg i.p.): Very weak
3 | Fc1ccc(-n2c3c(c4cc(F)ccc42)CN(CCc2cnccn2)CC3)cc1 [Example 8, 8-Fluoro-5-(4-fluorophenyl)-2,3,4,5-tetrahydro-2-[2-(2-pyrazinyl)ethyl]-1H-pyrido[4,3-b]indole] |  | Very Active | L-R relative activity ([3]; 20 mg/kg p.o.): Active; ED50 [3]: 15.2 mg/kg
4 | Fc1ccc(-n2c3c(c4cc(F)ccc42)CN(CCCCc2ccccn2)CC3)cc1 [Example 6, 8-Fluoro-5-(4-fluorophenyl)-2,3,4,5-tetrahydro-2-[4-(2-pyridinyl)butyl]-2H-pyrido[4,3-b]indole] |  | Active | 

Further compounds by falling Ki [1], results first:

Row | Ki [1] [nM] | Structure (SMILES) | S-J relative activity ([2]; 40 mg/kg i.p.) | also measured
5 | 600 | c1ccc(C2CN(CCc3ccccn3)Cc3c2[nH]c2ccccc32)cc1 (stereo not drawn) [Example 4, 2,3,4,5-Tetrahydro-4-phenyl-2-[2-(2-pyridinyl)ethyl]-1H-pyrido[4,3-b]indole] |  | 
6 | 140 | c1ccc(C2CN(CCCc3cccnc3)Cc3c2[nH]c2ccccc32)cc1 (stereo not drawn) [Example 3, 2,3,4,5-Tetrahydro-4-phenyl-2-[3-(3-pyridinyl)propyl]-1H-pyrido[4,3-b]indole] |  | 
7 | 7 | Fc1ccc(-n2c3c(c4cc(F)ccc42)CN(CCc2ccccn2)CC3)cc1 [Example 1, 8-Fluoro-5-(4-fluorophenyl)-2,3,4,5-tetrahydro-2-[2-(2-pyridinyl)ethyl]-1H-pyrido[4,3-b]indole] |  | S-J relative activity ([2]; 20 mg/kg i.p.): Active; L-R relative activity ([3]; 20 mg/kg p.o.): Active; ED50 [3]: 6.3 mg/kg
8 | 1.07 | Fc1ccc(-n2c3c(c4cc(F)ccc42)CN(CCc2ccc4ccccc4n2)CC3)cc1 [Example 5, 8-Fluoro-5-(4-fluorophenyl)-2,3,4,5-tetrahydro-2-[2-(2-quinolinyl)ethyl]-1H-pyrido[4,3-b]indole] | Active | L-R relative activity ([3]; 40 mg/kg p.o.): Active; ED50 [4]: 1.62 mg/kg
